Results as given in patent US20120065126A1, “Pharmaceutical Compositions Containing Antifungal Peptides” (BASF SE, priority 2009, published 2012).
Ends that are not written are not given here.

What was measured:
[1] = tested on: Malassezia furfur; assay: Growth inhibition at equal concentrations by weight of P18, zinc pyrithione, climbazole, ketoconazole (CFU); assay type: cell-based
Description: (§1) The studies described hereinafter were conducted on the Malassezia furfur strain DSM 6170.
For this purpose, the procedure was as follows:
(§2) The growth test was effected as follows: a shake culture containing M472 Pityrosporum medium was inoculated with M. furfur and incubated with shaking at 30° C. and 200 rpm overnight.
A 96-well microtiter plate was filled with 100 μl per well of M472 Pityrosporum medium and inoculated with M. furfur suspension from the overnight culture. The M. furfur suspension was adjusted at the start of the experiment to an optical density, measured at 600 nm, of 0.02. The concentrates of the inhibitor solutions were 1 mM in DMSO for P18 peptide and 10 mM in DMSO for zinc pyrithione, ketoconazole and climbazole. The final DMSO concentration was kept the same in all experiments.
The following growth was compared by measuring the optical density: • M. furfur suspension and addition of the P18 solution with a final concentration of 50 μM (corresponds to 0.0115% (w/w)) • M. furfur suspension and addition of the zinc pyrithione (ZPT) solution with a final concentration of 362 μM (comparison to the mixture containing 50 μM P18 peptide) • M. furfur suspension and addition of the ketoconazole solution with a final concentration of 216 μM (comparison to the mixture containing 50 μM P18 peptide) • M. furfur suspension and addition of the climbazole solution with a final concentration of 390 μM (comparison to the mixture containing 50 μM P18 peptide)
The microtiter plate was incubated with shaking at 30° C.
[…] After incubation over the course of 6 days, the colonies on the plate were counted. The CFU was determined in order to rule out any influence of the biphasic medium, and also the growth form of M. furfur, on the optical density. The experiments were each conducted in double determination, at least in two independent experiments.

[2] = tested on: M. furfur DSM 6170; assay: Comparison of further inventive peptides and AFPP (CFU); assay type: cell-based, Malassezia furfur; conditions: 0.3%; 10 minutes
From the text: In order to compare the effect of other inventive peptides with the effect of the antifungal polypeptide AFPP from Aspergillus giganteus on the growth of Malassezia furfur, the procedure was as follows:
As a comparison, the peptide variants with SEQ ID NO. 4726 (sequence: FKKALHLFKPIKKFLKWK-NH2 (Bachem AG, Switzerland)) and SEQ ID NO. 4727 (sequence: KFLHLAKKFPKWKLFKKI-NH2 (Bachem AG, Switzerland)) were selected. The peptide and AFPP concentrates were in the form of 2% (w/w) solutions in phosphate buffer (10 mM sodium phosphate, pH 7.5, 100 mM NaCl). […]
For each test mixture, a 1.5 ml reaction vessel was filled with Pityrosporum medium and inoculated with the M. furfur overnight culture to give a start OD of 0.1, measured at 600 nm.
The growth of the following test mixtures was monitored: • M. furfur suspension and addition of 90 μl of phosphate buffer (in order to rule out any influence of the phosphate buffer on the effect of the active peptides at a final concentration of 0.3%) • M. furfur suspension with a final concentration of the inventive peptide variant with SEQ ID NO. […]
The reaction volume was 600 μl in each case. […] The CFU (colony forming units) were determined by counting after incubation at 30° C. for 6 days. […]

[3] = tested on: M. furfur; assay: Effect of P18 variants (CFU); assay type: cell-based, Malassezia furfur; conditions: 50 μM peptide, with DMSO; 24 h
Description: as §1
The inhibitory effect of the following P18 variants on M. furfur was studied:
as §2
A 96-well microtiter plate was filled with 100 μl per well of M472 Pityrosporum medium and inoculated with M. furfur suspension from the overnight culture. The M. furfur suspension was adjusted at the start of the experiment to an optical density, measured at 600 nm, of 0.1.
The peptide variants were dissolved with a final concentration of 1 mM in dimethyl sulfoxide (DMSO). It is also possible to dispense with DMSO and to use a purely aqueous peptide solution. 5 μl of this solution were added to 100 μl of M. furfur suspension (final concentration of the P18 peptide 50 μM). In a control mixture, the same amount of DMSO without P18 peptide was added.
The microtiter plate was incubated with shaking at 30°.
After 24 h, the colony forming units (CFU) were determined by streaking 10 μl of each of the suspensions and, after incubation over the course of 6 days, counting the colonies. Two independent experiments each with three identical mixtures were conducted, and the number of colony forming units was averaged.

Compound	Colony forming units after the incubation time specified [2] [CFU]	Averaged number of colony forming units (CFU) [3] [CFU]	other results
CC(C)(C)C(=O)C(Oc1ccc(Cl)cc1)n1ccnc1 (centres unmarked) [climbazole]	–	–	Colony forming units (CFU) ([1]; final conc. 390 μM, 24 h): 137 ± 33 CFU; Colony forming units (CFU) ([1]; final conc. 390 μM, 40 h): 35 ± 15 CFU
CC(=O)N1CCN(c2ccc(OCC3COC(Cn4ccnc4)(c4ccc(Cl)cc4Cl)O3)cc2)CC1 (centres unmarked) [ketoconazole]	–	–	Colony forming units (CFU) ([1]; final conc. 216 μM, 24 h): 84 ± 76 CFU; Colony forming units (CFU) ([1]; final conc. 216 μM, 40 h): 9 ± 5 CFU
FKKALHLFKPIKKFLKWK-NH2 [Peptide variant SEQ ID NO. 4726]	3 ± 1	–	–
H-KWKLFKKIPKFLHLAKKF-OH [P18-OH]	–	3	–
H-PKWKLFKKIPKFLHLAKKFD-OH [P18AC-OH]	–	37	–
KFLHLAKKFPKWKLFKKI-NH2 [Peptide variant SEQ ID NO. 4727]	59 ± 46	–	–
